{
  "source": "patent US9315818B2",
  "about": "“Plant expression constructs and methods of utilizing same” (priority 2006, dated 2016)",
  "key": {"Bemisia tabaci": {"tested_on": "Bemisia tabaci", "test": "Transfer of IL-60-BS by Bemisia tabaci", "type": "in vivo", "settings": "insects fed on IL-60-BS-carrying tomato plants, transferred to healthy tomato plants; PCR", "text": "Assay for Transfer of IL-60-BS by Bemisia tabaci—Bemisia tabaci were allowed to feed on IL-60-BS-carrying tomato plants (15 insects per plant). Insects were then fed on sucrose and transferred to healthy tomato plants. DNA was extracted from both types of plants and used as a template for PCR using primers which amplify a sequence specific to IL-60 (e.g. SEQ ID NO: 16 and NO: 17) or other relevant primer pairs.\nWild TYLCV is transmitted by the whitefly, Bemisia tabaci. To test whether the viral vector is also transmitted through a viral natural transmitter, plants carrying the IL-60-BS vector were fed to B. tabaci."}, "tomato plants": {"tested_on": "tomato plants", "test": "Vector replication, spread, reporter expression and symptoms in tomato plants (PCR, GUS staining)", "type": "in vivo", "protocol": "Propagation of the virus-plasmid vectors and their administration to plants—E. coli cells were transformed with IL-60 (SEQ ID NO: 2), IL-60-BS (SEQ ID NO: 1), IL-60-BS-GUS and IL-60-BS-GFP and propagated under ampicillin selection; the construct was extracted using standard procedures. IL-60-BS was administered directly into plants, without mediation by Agrobacterium. The stem, or leaf petiole, of the recipient plant was punctured by a hypodermic needle. A capillary tube was inserted into the resultant hole, and approximately 2 microgram of DNA (in 100 μl of 5 mM Tris-HCl; pH 8.5) were pipetted into the capillary tube until fully soaked by the plant. For large-scale applications, samples were delivered into plants by the BIM-LAB instrument (Bio-OZ biotechnologies, Yad Mordechai, Israel).\nPCR analysis—PCR analysis was carried out according to standard procedures. DNA for PCR analysis was extracted as described in Bernatzky R. and Tanksley, S. D. [Theor. Appl. Genet. 72:314-321 (1986)], from leaves positioned at least 3 leaves above the point of administration. Tomato plants carry Geminivirus sequences in their genome [Ashby, M. K. et al., Plant Mol. Biol. 35, 313-321 (1997)]. Thus, it was also necessary to ascertain that PCR products were obtained from vector templates and not from native viral infection or plant sequences. Therefore, PCR tests were carried out with primers distinguishing IL-60 from TYLCV, or spanning the junction between IL-60 and the plasmid. • (i) primers distinguishing IL-60 from TYLCV; 977 (forward): gaa ggc tga act tcg aca g (SEQ ID NO: 16), 966 (reverse): att ggg ctg ttt cca tag ggc (SEQ ID NO: 17) • (ii) primers which amplify the junction between Bluescript and IL-60; 939 (forward) aga gac acc gat tca ttt caa c (SEQ ID NO: 18); 940 (reverse) gcg gat aac aat ttc aca cag (SEQ ID NO: 19).\nIn order to detect the presence of plasmids carrying reporter genes, PCR was performed with primers amplifying the reporter gene inserted into IL-60-BS. • iii) GUS specific primers: 408 (forward) gaa caa cga act gaa ctg gca gac (SEQ ID NO: 25); 167 (reverse) cag cgt aag ggt aat gcg ag (SEQ ID NO: 26). • iv) GFP specific primers: 895 (forward) ggc cga att cag taa agg aga ag (SEQ ID NO: 27); 345 (reverse) tgt gtg gac agg taa tgg (SEQ ID NO: 28).\nTYLCV, IL-60, IL-60-BS and reporter gene derivative plasmids were either agroinoculated or injected into tomato plants and their replication and spread was monitored with symptom observation, PCR analysis and Southern blot. The expression of viral and reporter genes was assessed using PCR, Northern and Western analysis, GUS staining and GFP fluorescence as described above in methods and materials."}, "plant genome": {"tested_on": "plant genome", "test": "Southern blot for integration into the plant genome", "type": "in vivo, tomato", "settings": "BglII-cleaved vs uncleaved DNA", "protocol": "Molecular analysis—Southern analysis was carried out according to standard procedures (e.g as set forth in Sambrook, J. & Russel, D. W. Molecular Cloning, Third Edition. Cold Spring Harbor Laboratory Press, Cold Spring Harbor (2001)). Probes for Southern analysis were labeled by the PCR-DIG procedure (Roche Molecular Biochemicals, Basel, Switzerland). DIG labeled probes (TYLCV-CP—SEQ ID NO: 40) which hybridize with nucleotides 530-908 of the sequence identified by GenBank Accession No. X15656 were prepared according to the manufacturers protocol. Northern and Western analyses were carried out according to standard procedures. Probes for Northern analysis were labeled as described for the Southern blot analysis. Detection of GUS and GFP activities were performed according to published procedures [Jefferson, R. A., EMBO J. 6, 3901-3907 (1987); Blumenthal, A., Plant Science 142, 93-99 (1999)]. Chemiluminescent probes for Western blots were prepared with the SuperSignal West Pico kit (Pierce, Rockford, Ill., USA), using polyclonal antibodies against TYLCV-CP (Bioreba, Reinach, Switzerland) All probes were prepared according to the respective manufacturer's protocol. […]\nSouthern analysis was done without shearing, and with or without cleaving DNA with BglII. Two major bands were detected in samples from IL-60-BS, as well as TYLCV-infected plants (lanes 3-6, and lane 2 respectively of FIG. 3a). […]"}, "several fungi": {"tested_on": "several fungi", "settings": "PRN spraying in field tests; U.S. Pat. No. 5,698,425; cited from earlier work"}},
  "data": [
    {"compound": "IL-60-BS: IL-60 with Bluescript II-KS+ plasmid inserted, interrupting rep and C4 (SEQ ID NO: 1)", "values": [
      {"measurement": "transmission of vector by insects to non-carrying plants", "setting": "Bemisia tabaci", "value": "did not carry the IL-60-BS vector"},
      {"measurement": "efficiency of administration into plants", "setting": "tomato plants; direct injection", "value": "over 90%"},
      {"measurement": "symptoms in injected plants", "setting": "tomato plants; more than 64 injected tomato plants", "value": "did not present any symptom"},
      {"measurement": "persistence of vector after injection", "setting": "tomato plants; tomato plants, PCR, duration of the plants life-span", "value": 12, "unit": "months"},
      {"measurement": "vector found / replication indicated by PCR, time post injection", "setting": "tomato plants; tomato plants, leaves remote from the point of injection", "value": 3, "unit": "days"},
      {"measurement": "integration into the plant genome", "setting": "plant genome", "value": "had not been integrated into the plant's genome"}
    ]},
    {"compound": "O=[N+]([O-])c1c(Cl)cccc1-c1c[nH]cc1Cl", "note": "[PRN, Pyrrolnitrin]", "values": [
      {"measurement": "reduction in infectivity of several fungi", "setting": "several fungi", "value": "up to 8 fold"}
    ]},
    {"compound": "IL-60: TYLCV-derived vector (SEQ ID NO: 2) with 60-nt coat protein deletion and frame shift", "values": [
      {"measurement": "infection after agroinoculation", "setting": "tomato plants; tomato plants agroinoculated with the multimeric form, kept until fruit set", "value": "systemic, but symptomless infection"}
    ]}
  ]
}
